Reference: patent US20240383905A1, “FGFR INHIBITORS AND METHODS OF USE THEREOF” (3H PHARMACEUTICALS CO., LTD., priority 2021, published 2024)

Tests used:
FGFR2 = biological target: T1, FGFR2 (Homo sapiens, UniProt P21802); experiment: FGFR2 Biochemical Caliper Assay (KinEASE-TK kit); settings: 0.07 nM FGFR2; compound incubated with protein 10 min, reaction 45 min at RT; read-out: FGFR2 Cliper IC50
T1 construct: purchased Carna 08-134
Experimental: Compounds of the present invention were tested in a FGFR1, FGFR2, and FGFR3 Biochemical Caliper Assay.
(§1) Enzyme activity was monitored using KinEASE-TK kit (CisBio, Cat.No. 62TK0PEC) according to manufacturer's instructions. […] Final enzyme concentration was 0.2 nM for FGFR1 and FGFR3, 0.07 nM for FGFR2. Compounds were prepared in 10 mM DMSO and serially diluted into 10 concentrations by 3-fold dilution. Prior to the initiation of the reaction by adding TK-substrate/ATP mixture, the compounds were incubated with protein for 10 min at RT. […] Plates were quenched by adding TK-antibody-Cryptate and Sa-XL665 mixture. After 60 min in the stop solution, read the signal on microplate reader (Molecular Devices, i3x), excitation of 320 nm and emission of 615 nm and 665 nm with a […]. IC50 values were calculated using Prism 7 (GraphPad).

FGFR1 = biological target: T2, FGFR1 (Homo sapiens, UniProt P11362); experiment: FGFR1 Biochemical Caliper Assay (KinEASE-TK kit); settings: ratio FGFR1/FGFR2 of the biochemical assay
T2 construct: purchased Carna 08-133
T2 sequence (P11362 22-822): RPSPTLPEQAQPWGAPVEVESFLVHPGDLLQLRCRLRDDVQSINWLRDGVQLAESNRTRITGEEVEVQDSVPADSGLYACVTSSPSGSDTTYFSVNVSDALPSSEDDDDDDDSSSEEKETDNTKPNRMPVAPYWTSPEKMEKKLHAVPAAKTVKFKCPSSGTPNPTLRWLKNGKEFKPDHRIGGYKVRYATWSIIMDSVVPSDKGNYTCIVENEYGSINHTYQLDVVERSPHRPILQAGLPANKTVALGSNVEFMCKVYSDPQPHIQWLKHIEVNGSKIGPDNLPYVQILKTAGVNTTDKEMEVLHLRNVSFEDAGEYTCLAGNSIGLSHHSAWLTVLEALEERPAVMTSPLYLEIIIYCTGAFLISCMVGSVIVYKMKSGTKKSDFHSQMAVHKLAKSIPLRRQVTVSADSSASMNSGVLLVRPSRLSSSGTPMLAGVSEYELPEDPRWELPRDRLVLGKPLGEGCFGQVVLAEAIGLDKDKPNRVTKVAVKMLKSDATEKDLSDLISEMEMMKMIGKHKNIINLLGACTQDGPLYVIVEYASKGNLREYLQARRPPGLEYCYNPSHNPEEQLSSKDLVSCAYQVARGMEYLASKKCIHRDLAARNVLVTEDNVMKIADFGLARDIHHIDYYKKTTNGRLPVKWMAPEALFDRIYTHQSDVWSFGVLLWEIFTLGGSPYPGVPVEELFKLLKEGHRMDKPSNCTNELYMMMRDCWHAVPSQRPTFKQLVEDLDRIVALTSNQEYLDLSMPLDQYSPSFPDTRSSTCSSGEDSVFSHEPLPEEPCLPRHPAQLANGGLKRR
Experimental: as §1, with “Compounds of the present invention were tested in a FGFR1, FGFR2, and FGFR3 Biochemical Caliper Assay. Enzyme” for “Enzyme”

FGFR3 = biological target: T3, FGFR3 (Homo sapiens, UniProt P22607); experiment: FGFR3 Biochemical Caliper Assay (KinEASE-TK kit); settings: ratio FGFR3/FGFR2 of the biochemical assay
T3 construct: purchased Carna 08-135
T3 sequence (P22607 23-806): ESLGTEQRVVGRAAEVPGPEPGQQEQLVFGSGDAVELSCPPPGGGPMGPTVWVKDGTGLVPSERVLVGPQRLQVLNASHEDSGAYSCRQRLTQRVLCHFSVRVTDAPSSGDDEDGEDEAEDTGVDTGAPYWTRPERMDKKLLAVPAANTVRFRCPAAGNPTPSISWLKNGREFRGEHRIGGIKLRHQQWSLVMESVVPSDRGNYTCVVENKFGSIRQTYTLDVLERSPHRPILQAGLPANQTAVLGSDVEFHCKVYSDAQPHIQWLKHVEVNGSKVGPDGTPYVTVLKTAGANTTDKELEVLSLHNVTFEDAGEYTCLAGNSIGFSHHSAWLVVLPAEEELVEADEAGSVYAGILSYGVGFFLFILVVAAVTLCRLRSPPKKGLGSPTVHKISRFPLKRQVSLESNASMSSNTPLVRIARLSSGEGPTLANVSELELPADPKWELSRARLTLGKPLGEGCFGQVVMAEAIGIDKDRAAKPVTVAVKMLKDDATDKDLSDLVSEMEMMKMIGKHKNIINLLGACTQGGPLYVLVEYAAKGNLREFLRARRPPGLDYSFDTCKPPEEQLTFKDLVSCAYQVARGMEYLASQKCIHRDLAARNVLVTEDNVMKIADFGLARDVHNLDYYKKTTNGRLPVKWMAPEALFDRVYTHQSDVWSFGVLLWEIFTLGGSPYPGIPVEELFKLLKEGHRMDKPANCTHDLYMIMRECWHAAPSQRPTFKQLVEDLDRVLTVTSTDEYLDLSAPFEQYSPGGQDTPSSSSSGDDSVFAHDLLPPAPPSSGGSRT
Experimental: as §1, with “Compounds of the present invention were tested in a FGFR1, FGFR2, and FGFR3 Biochemical Caliper Assay. Enzyme” for “Enzyme”

SNU16 cells = experiment: SNU16 Cancer Cell Line Proliferation Assay (CellTiter-Glo); format: cell-based; settings: Homo sapiens, SNU-16, 72 h
Experimental: Compounds of the present invention were also tested in a SNU16 Cancer Cell Line Proliferation Assay.
SNU16 cells were plated in 96-well clear bottom/white plate(Costar, Cat.No. 3610) at 5000 cells/well in 100 μl medium. Test compounds were prepared in a 10 mM DMSO stock solution and serially diluted into 9 concentrations by 3-fold dilution. 0.5 μl of each concentration of compound was added into the cell culture plates and DMSO as a control. The plates were incubated for 72 h at 37° C. and 5% CO2 incubator. 50 μl CellTiter-Glo reagent (Promega, G7572) was added into each well and then the plates were shaken gently for 10 min at room temperature. Luminescence was read on microplate reader (Molecular Devices, i3x), IC50 values were calculated using Prism 7 (GraphPad).

T1 sequence (P21802 22-821): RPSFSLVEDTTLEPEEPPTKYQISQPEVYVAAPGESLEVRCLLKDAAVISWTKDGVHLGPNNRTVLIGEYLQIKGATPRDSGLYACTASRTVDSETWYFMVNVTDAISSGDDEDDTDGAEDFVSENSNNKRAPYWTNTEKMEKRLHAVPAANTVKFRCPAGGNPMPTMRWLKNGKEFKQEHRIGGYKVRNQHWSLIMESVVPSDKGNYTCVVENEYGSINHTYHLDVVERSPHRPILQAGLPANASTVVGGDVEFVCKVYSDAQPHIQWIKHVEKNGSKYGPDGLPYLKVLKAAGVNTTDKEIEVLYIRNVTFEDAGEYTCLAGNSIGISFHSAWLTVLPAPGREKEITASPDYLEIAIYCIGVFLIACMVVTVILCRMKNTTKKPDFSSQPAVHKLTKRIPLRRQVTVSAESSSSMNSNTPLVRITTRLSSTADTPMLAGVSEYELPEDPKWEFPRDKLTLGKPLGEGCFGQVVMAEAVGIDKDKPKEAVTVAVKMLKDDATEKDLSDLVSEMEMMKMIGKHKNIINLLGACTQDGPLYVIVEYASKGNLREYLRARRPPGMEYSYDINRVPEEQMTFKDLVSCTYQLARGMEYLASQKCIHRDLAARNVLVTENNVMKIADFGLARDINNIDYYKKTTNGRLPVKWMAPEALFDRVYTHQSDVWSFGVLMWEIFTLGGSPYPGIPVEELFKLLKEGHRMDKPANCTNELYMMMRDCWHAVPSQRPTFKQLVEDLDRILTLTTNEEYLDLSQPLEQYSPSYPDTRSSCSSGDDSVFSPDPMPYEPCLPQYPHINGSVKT

Compound	IC50 (FGFR2)	Selectivity FGFR1/FGFR2 (FGFR1)	Selectivity FGFR3/FGFR2 (FGFR3)	IC50 (SNU16 cells)
C=C(F)C(=O)Nc1ccc(-c2[nH]c3c(C#N)cnc(N)c3c2-c2ccc(C(=O)NC3CC3)c(OC)c2)c(F)c1 [Compound 267, 4-(4-amino-7-cyano-2-(2-fluoro-4-(2-fluoroacrylamido)phe-nyl)-1H-pyrrolo[3,2-c]pyridin-3-yl)-N-cyclopropyl-2-methoxybenzamide]	< 5 nM	B (Selectivity of FGFR1/FGFR2 less than 300 but greater than or equal to 200)	A+ (Selectivity of FGFR3/FGFR2 greater or equal to 150)	≤ 10 nM
C=CC(=O)Nc1ccc(-c2nn3ncnc(N)c3c2-c2ccc(Oc3cccc(C)n3)c(F)c2)cc1 [Compound 366]	< 5 nM	A+ (Selectivity of FGFR1/FGFR2 greater or equal to 500)	A+ (Selectivity of FGFR3/FGFR2 greater or equal to 150)	≤ 10 nM
C=C(C)C(=O)Nc1ccc(-c2c(-c3ccc(Oc4nccc(C)n4)cc3)c3c(N)ncc(C#N)c3n2C)c(Cl)c1 [Compound 474, N-(4-(4-amino-7-cyano-1-methyl-3-(4-((4-methylpyrimidin-2-yl)oxy)phenyl)-1H-pyrrolo[3,2-c]pyridin-2-yl)-3-chlorophenyl)methacrylamide]	5 to 10 nM	A+ (Selectivity of FGFR1/FGFR2 greater or equal to 500)	A+ (Selectivity of FGFR3/FGFR2 greater or equal to 150)	≤ 10 nM
C=CC(=O)Nc1ccc(-c2c(-c3ccc(C(=O)NC4CC4)c(OC)c3)c3c(N)ncc(C#N)c3n2C)c(F)c1 [Compound 157, 4-(2-(4-acrylamido-2-fluorophenyl)-4-amino-7-cyano-1-methyl-1H-pyrrolo[3,2-c]pyridin-3-yl)-N-cyclopropyl-2-methoxybenzamide]	< 5 nM	B (Selectivity of FGFR1/FGFR2 less than 300 but greater than or equal to 200)	B (Selectivity of FGFR3/FGFR2 less than 100 but greater than or equal to 25)	≤ 10 nM
C=CC(=O)Nc1ccc(-c2nn3ncnc(N)c3c2-c2ccc(C(=O)NC3CC3)c(OC)c2)c(F)c1 [Compound 155, 4-(6-(4-acrylamido-2-fluorophenyl)-4-aminopyrazolo[5,1-f] [1,2,4]triazin-5-yl)-N-cyclopropyl-2-methoxybenzamide]	< 5 nM	A+ (Selectivity of FGFR1/FGFR2 greater or equal to 500)	A (Selectivity of FGFR3/FGFR2 less than 150 but greater than or equal to 100)	≤ 10 nM
C=C(C)C(=O)Nc1ccc(-c2nn3ncnc(N)c3c2-c2ccc(Oc3nccc(C)n3)c(F)c2)c(C)c1 [Compound 450]	> 10 nM	A+ (Selectivity of FGFR1/FGFR2 greater or equal to 500)	B (Selectivity of FGFR3/FGFR2 less than 100 but greater than or equal to 25)	≤ 10 nM
C=C(C)C(=O)Nc1ccc(-c2nn3ncnc(N)c3c2-c2ccc(Oc3nccc(C)n3)c(F)c2)c(Cl)c1 [Compound 451]	< 5 nM	A (Selectivity of FGFR1/FGFR2 less than 500 but greater than or equal to 300)	B (Selectivity of FGFR3/FGFR2 less than 100 but greater than or equal to 25)	≤ 10 nM
C=CC(=O)Nc1ccc(-c2nn3ncnc(N)c3c2-c2ccc(NC(=O)C3CC(F)(F)C3)c(OC)c2)cc1 [Compound 340, N-(4-(6-(4-acrylamidophenyl)-4-aminopyrazolo[5,1-f][1,2,4]triazin-5-yl)-2-methoxyphenyl)-3,3-difluorocyclobutane-1-carboxamide]	> 10 nM	B (Selectivity of FGFR1/FGFR2 less than 300 but greater than or equal to 200)	A (Selectivity of FGFR3/FGFR2 less than 150 but greater than or equal to 100)	≤ 10 nM
C=C(F)C(=O)Nc1ccc(-c2nn3ncnc(N)c3c2-c2ccc(C(=O)NCC(F)(F)F)c(OC)c2)c(F)c1 [Compound 100, 4-(4-amino-6-(2-fluoro-4-(2-fluoroacrylamido)phenyl)pyrazolo[5,1-f][1,2,4]triazin-5-yl)-2-methoxy-N-(2,2,2-trifluoroethyl)benzamide]	< 5 nM	A+ (Selectivity of FGFR1/FGFR2 greater or equal to 500)	A+ (Selectivity of FGFR3/FGFR2 greater or equal to 150)	≤ 10 nM
C=CC(=O)Nc1ccc(-c2c(-c3ccc(Oc4ncccn4)c(F)c3)c3c(N)ncc(C#N)c3n2C)cc1 [Compound 443, N-(4-(4-amino-7-cyano-3-(3-fluoro-4-(pyrimidin-2-yloxy)phenyl)-1-methyl-1H-pyrrolo[3,2-c]pyridin-2-yl)phenyl)acrylamide]	< 5 nM	C (Selectivity of FGFR1/FGFR2 less than 200 but greater than or equal to 100)	B (Selectivity of FGFR3/FGFR2 less than 100 but greater than or equal to 25)	≤ 10 nM
C=CC(=O)Nc1ccc(-c2nn3ncnc(N)c3c2-c2ccc(C(=O)NCC(F)(F)F)c(OC)c2)c(F)c1 [Compound 86, 4-(6-(4-acrylamido-2-fluorophenyl)-4-aminopyrazolo[5,1-f] [1,2,4]triazin-5-yl)-2-methoxy-N-(2,2,2-trifluoroethyl)benzamide]	< 5 nM	A+ (Selectivity of FGFR1/FGFR2 greater or equal to 500)	B (Selectivity of FGFR3/FGFR2 less than 100 but greater than or equal to 25)	≤ 10 nM
C=CC(=O)Nc1ccc(-c2c(-c3ccc(Oc4nccc(C)n4)cc3)c3c(N)ncc(C#N)c3n2C)cc1 [Compound 69, N-(4-(4-amino-7-cyano-1-methyl-3-(4-((4-methylpyrimidin-2-yl)oxy)phenyl)-1H-pyrrolo[3,2-c]pyridin-2-yl)phenyl)acrylamide]	< 5 nM	A (Selectivity of FGFR1/FGFR2 less than 500 but greater than or equal to 300)	B (Selectivity of FGFR3/FGFR2 less than 100 but greater than or equal to 25)	≤ 10 nM
C=CC(=O)Nc1ccc(-c2nn3ncnc(N)c3c2-c2ccc(C(=O)NC3CCC3)c(C)c2)cc1 [Compound 74, 4-(6-(4-acrylamidophenyl)-4-aminopyrazolo[5,1-f][1,2,4]triazin-5-yl)-N-cyclobutyl-2-methylbenzamide]	> 10 nM	C (Selectivity of FGFR1/FGFR2 less than 200 but greater than or equal to 100)	A+ (Selectivity of FGFR3/FGFR2 greater or equal to 150)	≤ 10 nM
C=CC(=O)Nc1ccc(-c2c(-c3ccc(C(=O)NC4CC4)c(OC)c3)c3c(N)ncc(C#N)c3n2CCF)cc1 [Compound 236, 4-(2-(4-acrylamidophenyl)-4-amino-7-cyano-1-(2-fluoroethyl)-1H-pyrrolo[3,2-c]pyridin-3-yl)-N-cyclopropyl-2-methoxybenzamide]	< 5 nM	A+ (Selectivity of FGFR1/FGFR2 greater or equal to 500)	A (Selectivity of FGFR3/FGFR2 less than 150 but greater than or equal to 100)	≤ 10 nM
